Several values for one entry are separate records, joined by “and”; a condition that tells them apart may be missing. Identical values can stand only once.
Columns and labels:
[1] = Microsomal stability, mouse; format: in vitro ADME; details: for CLint in vivo: scaled up using PBSF
Method: (§1) The metabolic stability assay was performed by incubating compounds individually (0.8, 4, or 20 µM) with mouse, rat, dog and human liver microsomes (Fisher, 0.5 mg/mL protein concentration) at 37 °C. The metabolic reaction was initiated by the addition of a NADPH-regenerating system and quenched at various time points by the addition of acetonitrile according to a published method.
(§2) The remaining concentration of each compound was measured as a ratio of peak area to the internal standard. The log peak area ratio was plotted vs. time (h), and the slope was determined to calculate the elimination rate constant [k = (− 2.303) * slope]. If deviation from first order kinetics was evident, only the initial linear portion of the plot was used to determine the rate constate, k. The half-life (h) was calculated as t1/2 = 0.693/k. Intrinsic clearance in vitro was calculated as CLintin vitro = (1000)*(0.693/t1/2*60)/0.5, where microsomal concentration in the reaction solution was 0.5 mg/mL; 1000 and 60 are scaling factors for volume (µL) and time (min), respectively. The intrinsic in vitro clearance was scaled to the intrinsic in vivo clearance using physiology based scaling factor (PBSF): CLint in vivo= CLint in vitro *PBSF: (microsome protein/gram liver) * (gram liver/kg b.w.), with PBSF: 47 (mouse), 47(rat), 58 (dog), 32 (human); and liver weight proportions: 54.9 (mouse), 36.6 (rat), 32.9 (dog) 25.7 (human).

[2] = Microsomal stability, rat; format: in vitro ADME; details: for CLint in vivo: scaled up using PBSF
Method: as §1, §2

[3] = Microsomal stability, dog; format: in vitro ADME; details: for CLint in vivo: scaled up using PBSF
Method: as §1, §2

CYP2C19 = biological target: T1, CYP2C19 (Homo sapiens, UniProt P33261); experiment: CYP450 inhibition, CYP2C19; format: in vitro ADME; details: 10 µM, probe substrate S-mephenytoin, replicate measurements
T1 construct: purchased Cypex Ltd (Bactosomes)

CYP2D6 = biological target: T2, CYP2D6 (Homo sapiens, UniProt P10635); experiment: CYP450 inhibition, CYP2D6; format: in vitro ADME; details: 10 µM, probe substrate Bufuralol, replicate measurements
T2 construct: purchased Cypex Ltd (Bactosomes)

[4] = LogD octanol/pH 7.4 buffer shake flask; format: physicochemical
Method: Octanol/pH 7.4 buffer partitioning experiments were conducted using a shake flask method, and pKa was assessed by potentiometric titration. Both methods have been described previously.

[5] = Dog pharmacokinetics, single PO or IV dose; format: in vivo, male beagle dogs
Text: Studies were undertaken to determine the plasma pharmacokinetics of SJ733 and SJ311. These studies included: (i) single oral gavage (PO) or intravenous (IV) dose administration to female C57BL/6 mice; (ii) single PO or IV dose administration to male Sprague Dawley (SD) rats; (iii) single PO or IV dose administration to male beagle dogs; (iv) toxicokinetic (TK) study following single PO administration to male SD rats. The PO and IV formulation used for mouse studies at SJCRH was 1% hydroxypropyl-beta-cyclodextrin (w/v), 10% ethanol (v/v), 10% propylene glycol (v/v), 40% PEG-400 (v/v) and 39% PBS (pH 7.4) isotonic (v/v). Compounds were dosed orally as suspensions, and intravenously as filtered solutions. Compound concentrations were confirmed post filtration using UV spectroscopy. The IV formulation used for rat studies (Monash University) was the same as that used for mice. For PO dosing to rats (Monash University) at 2 mg/kg, a suspension formulation was used containing 0.5% (w/v) hydroxypropyl methylcellulose, 0.5% (v/v) benzyl alcohol and 0.4% (v/v) Tween 80. The formulation used for rat studies at SRI (PO, high dose) was the same as that used in mouse PK studies. The formulation for the high dose TK study at SRI was 0.5% methylcellulose in sterile water. The formulation used for dog studies was the same as that used in mouse PK studies. The plasma PK of SJ733 and SJ311 following a single PO gavage or IV dose (via saphenous vein) to male beagle dogs was determined at an IV dose of 3 mg/kg and PO doses of 3 and 30 mg/kg (n = 3 for each). Briefly, this PK study was carried out in three sessions with one week washout period in between to allow for complete clearance of compounds. In the first session, 6 male dogs were administered a single 3 mg/kg IV dose of SJ311 or SJ733. In the subsequent second and third sessions, the same 6 male dogs were given a single 3 mg/kg or 30 mg/kg PO dose of SJ311 or SJ733, respectively. Plasma (0 -72 h) and urine (0–48 h) samples were collected for further analysis of SJ311 or SJ733 concentrations. Dog plasma was extracted utilizing protein precipitation with a twofold volume ratio of acetonitrile, while urine samples were extracted utilizing liquid–liquid extraction with ethyl acetate. SJ733, SJ311, and verapamil (IS) were quantitated by LC–MS/MS as described above. Plasma concentration time (Ct) data for SJ733 and SJ311 were grouped by nominal time point, and the mean Ct values were subjected to noncompartmental analysis (NCA) using Phoenix WinNonlin 8.1 (Certara USA, Inc., Princeton, NJ). For all experiments, the area under the Ct and first moment curves (AUC, AUMC) were estimated using the “linear up log down” method. The terminal phase was defined as at least three time points at the end of the Ct profile, and the elimination rate constant (Kel) was estimated using an unweighted log-linear regression of the terminal phase. The terminal elimination half-life (T1/2) was estimated as 0.693/Kel, and the AUC from time 0 to infinity ([…]) was estimated as the AUC to the last time point (AUClast) + Clast (predicted)/Kel with the […] similarly calculated. Additional parameters estimated included observed maximum concentration (Cmax), time of Cmax (Tmax), concentration at the last observed time point (Clast), time of Clast (Tlast), and the apparent oral terminal volume of distribution (V/F). The apparent oral clearance (CL/F), systemic clearance (CL) and volume of distribution at steady state (Vss) were all estimated using standard formulae [19].

[6] = mouse microsomes, 20, 4, 0.8 µM

T2 sequence (P10635 whole entry): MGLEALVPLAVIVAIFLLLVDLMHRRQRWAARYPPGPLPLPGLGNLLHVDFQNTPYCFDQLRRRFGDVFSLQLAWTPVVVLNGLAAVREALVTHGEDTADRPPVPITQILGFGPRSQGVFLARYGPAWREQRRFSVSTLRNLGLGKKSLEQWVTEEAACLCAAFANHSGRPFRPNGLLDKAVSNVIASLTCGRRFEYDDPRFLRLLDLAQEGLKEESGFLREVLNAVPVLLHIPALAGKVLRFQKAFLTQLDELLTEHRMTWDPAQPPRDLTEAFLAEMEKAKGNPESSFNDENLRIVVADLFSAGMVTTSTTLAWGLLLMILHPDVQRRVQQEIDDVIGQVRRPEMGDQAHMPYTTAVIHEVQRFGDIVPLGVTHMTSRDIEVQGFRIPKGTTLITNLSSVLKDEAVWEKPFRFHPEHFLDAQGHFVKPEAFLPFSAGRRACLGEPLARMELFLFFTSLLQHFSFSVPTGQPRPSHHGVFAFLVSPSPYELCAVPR
T1 sequence (P33261 whole entry): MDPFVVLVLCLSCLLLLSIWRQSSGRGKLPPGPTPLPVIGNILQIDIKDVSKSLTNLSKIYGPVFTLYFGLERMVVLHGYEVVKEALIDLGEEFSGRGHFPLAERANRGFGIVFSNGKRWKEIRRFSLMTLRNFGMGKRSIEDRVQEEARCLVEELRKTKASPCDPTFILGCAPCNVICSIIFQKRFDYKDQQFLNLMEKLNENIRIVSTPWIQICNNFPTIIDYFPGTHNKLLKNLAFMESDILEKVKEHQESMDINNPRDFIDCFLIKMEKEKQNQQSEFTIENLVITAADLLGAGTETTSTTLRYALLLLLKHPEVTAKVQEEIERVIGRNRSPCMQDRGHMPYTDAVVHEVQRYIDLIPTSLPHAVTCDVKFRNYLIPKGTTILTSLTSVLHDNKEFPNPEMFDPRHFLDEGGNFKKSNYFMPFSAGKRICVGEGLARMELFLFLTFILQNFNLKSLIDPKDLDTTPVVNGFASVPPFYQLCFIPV

SMILES: N#Cc1cc(NC(=O)C2c3ccccc3C(=O)N(CC(F)(F)F)C2c2cccnc2)ccc1F (racemic) [(r)-SJ733]
- CLint in vitro ([1]; mouse microsomes, 0.8 µM, independent replicate to Table 4): 9.1 ± 0.5 µl/min/mg protein
- CLint in vivo ([1]; mouse microsomes, 0.8 µM): 21.4 ± 1.3 mL/min/kg
- CLint in vitro ([1]; mouse microsomes, 4 µM, independent replicate to Table 4): 10 ± 0.5 µl/min/mg protein
- CLint in vivo ([1]; mouse microsomes, 4 µM): 23.4 ± 1.1 mL/min/kg
- CLint in vitro ([1]; mouse microsomes, 20 µM, independent replicate to Table 4): <7 µl/min/mg protein
- CLint in vivo ([1]; mouse microsomes, 20 µM): < 13.5 mL/min/kg
- CLint in vitro ([2]; rat microsomes, 0.8 µM, independent replicate to Table 4): <7 µl/min/mg protein
- CLint in vivo ([2]; rat microsomes, 0.8 µM): <11.7 mL/min/kg
- CLint in vitro ([2]; rat microsomes, 4 µM, independent replicate to Table 4): <7 µl/min/mg protein
- CLint in vivo ([2]; rat microsomes, 4 µM): <11.7 mL/min/kg
- CLint in vitro ([2]; rat microsomes, 20 µM, independent replicate to Table 4): <7 µl/min/mg protein
- CLint in vivo ([2]; rat microsomes, 20 µM): <11.7 mL/min/kg
- CLint in vitro ([3]; dog microsomes, 0.8 µM, independent replicate to Table 4): <7 µl/min/mg protein
- CLint in vivo ([3]; dog microsomes, 0.8 µM): <8.3 mL/min/kg
- CLint in vitro ([3]; dog microsomes, 4 µM, independent replicate to Table 4): <7 µl/min/mg protein
- CLint in vivo ([3]; dog microsomes, 4 µM): <8.3 mL/min/kg
- CLint in vitro ([3]; dog microsomes, 20 µM, independent replicate to Table 4): <7 µl/min/mg protein
- CLint in vivo ([3]; dog microsomes, 20 µM): <8.3 mL/min/kg
- inhibition of CYP2C19 (CYP2C19): 5, 5%
- inhibition of CYP2D6 (CYP2D6): 7% and 9%

SMILES: N#Cc1cc(NC(=O)[C@H]2c3ccccc3C(=O)N(CC(F)(F)F)[C@@H]2c2cn[nH]c2)ccc1F [(+)-SJ311]
- LogD (7.4) Shake flask [4]: 2.30
- CLint ([1]; mouse microsomes, 0.8 µM): < 7 µl/min/mg protein
- t1/2 ([1]; mouse microsomes, 0.8 µM): > 4 h
- CLint ([2]; rat microsomes, 0.8 µM): < 7 µl/min/mg protein
- t1/2 ([2]; rat microsomes, 0.8 µM): > 4 h
- CLint ([3]; dog microsomes, 0.8 µM): < 7 µl/min/mg protein
- t1/2 ([3]; dog microsomes, 0.8 µM): > 4 h
- AUCinf ([5]; single IV 3 mg/kg): 77.0 ± 12.4 µM·h
- CL ([5]; single IV 3 mg/kg): 1.42 ± 0.217 mL/min/kg
- Dose in urine ([5]; single IV 3 mg/kg): 32.3 ± 21.3%
- Half life ([5]; single IV 3 mg/kg): 7.8 ± 2.2 h
- Vss ([5]; single IV 3 mg/kg): 0.96 ± 0.27 L/kg
- AUCinf ([5]; single PO 3 mg/kg): 56.2 ± 12.1 µM·h
- CL ([5]; single PO 3 mg/kg): 2.02 ± 0.5 mL/min/kg
- Cmax ([5]; single PO 3 mg/kg): 4 ± 0.8 µM
- Dose in urine ([5]; single PO 3 mg/kg): 34.7 ± 15.9%
- F% ([5]; single PO 3 mg/kg): 73.0 ± 15.8%
- Half life ([5]; single PO 3 mg/kg): 6.1 ± 0.6 h
- Tmax ([5]; single PO 3 mg/kg): 3.3 ± 1.2 h
- V ([5]; single PO 3 mg/kg): 1.1 ± 0.4 L/kg
- AUCinf ([5]; single PO 30 mg/kg): 601 ± 137 µM·h
- CL ([5]; single PO 30 mg/kg): 1.88 ± 0.417 mL/min/kg
- Cmax ([5]; single PO 30 mg/kg): 35 ± 5.1 µM
- Dose in urine ([5]; single PO 30 mg/kg): 33.4%
- F% ([5]; single PO 30 mg/kg): 77.9 ± 17.7%
- Half life ([5]; single PO 30 mg/kg): 6.7 ± 1.4 h
- Tmax ([5]; single PO 30 mg/kg): 3.0 ± 1.7 h
- V ([5]; single PO 30 mg/kg): 1.1 ± 0.4 L/kg

SMILES: N#Cc1cc(NC(=O)C2c3ccccc3C(=O)N(CC(F)(F)F)C2c2cn[nH]c2)ccc1F (racemic) [(r)-SJ311]
- LogD (7.4) Shake flask [4]: 2.34
- CLint in vitro [1, 6]: <7 µl/min/mg protein
- CLint in vivo [1, 6]: < 13.5 mL/min/kg
- CLint in vitro ([2]; rat microsomes, 20, 4, 0.8 µM): <7 µl/min/mg protein
- CLint in vivo ([2]; rat microsomes, 20, 4, 0.8 µM): <11.7 mL/min/kg
- CLint in vitro ([3]; dog microsomes, 20, 4, 0.8 µM): <7 µl/min/mg protein
- CLint in vivo ([3]; dog microsomes, 20, 4, 0.8 µM): <8.3 mL/min/kg
- inhibition of CYP2C19 (CYP2C19): 12%
- inhibition of CYP2D6 (CYP2D6): 11%
